Where no end group is shown, it is not given here.
What was measured:
E. coli K88 = test: Heat, pH and salt sensitivity assay (MIC); assay type: cell-based, Escherichia coli; details: salts of Table S2
Experimental: To assess the stability of the peptides in physiological conditions, the peptides were incubated with E. coli K88 and S. aureus Mu50 in the presence of salts (150 mM NaCl, 4.5 mM KCl, 6 µM NH4Cl, 8 µM ZnCl2, 1 mM MgCl2, 4 µM FeCl3, and 2.5 µM CaCl2) in accordance with a previously reported protocol. To determine the thermal stability of the peptides, the peptides were pretreated at 100°C for 30 min, 60 min, and 90 min and cooled on ice for 10 min. The effect of acid and base on the antimicrobial activity was measured by treating the peptides for 2 h at pH of 2, 4, 10, and 12 in 10 mM sodium phosphate buffer adjusted with HCl or NaOH.

[1] = tested on: E. coli K88 inner membrane; test: Inner membrane integrity assay (PI); assay type: cell-based, Escherichia coli; details: 4 µM peptide, 30 min
Experimental: The outer and inner membrane integrity of bacterial cells treated with peptides was assessed using NPN and PI staining, respectively. Full details are provided in the Supplementary Materials.
Inner membrane integrity assay. E. coli K88 cells were washed and resuspended in 0.01 mol l−1 of PBS (pH 7.4) to obtain an OD600 of 0.5, followed by the addition of 10 nmol l−1 of PI (Thermo Fisher Scientific, catalogue no. P1304MP) in the presence of […]. After incubation for 30 min, fluorescence was measured with the excitation wavelength at 535 nm and emission wavelength at 615 nm.

P. aeruginosa ATCC27853 = assay type: cell-based, Pseudomonas aeruginosa
Experimental: (§1) The antibacterial activity was evaluated using a standard MIC and MBC assay according to the National Committee for Clinical Laboratory Standards (NCCLS). MIC, MBC assay, and time-kill curves for the optimal peptide are provided in the Supplementary Materials.
(§2) Antimicrobial Activity Assays. The antibacterial activity of the peptides was determined using a method designed from the National Committee for Clinical Laboratory Standards (NCCLS) in the United States. All the strains used in the experiment are preserved in the laboratory. Briefly, log phase bacterial cells were diluted in MHB to a final concentration of 0.5-1x10^5 CFU/mL. Subsequently, 50μL of different concentrations of polypeptides were incubated with 50 μL of bacterial solution in sterile 96-well plates. In the minimum inhibitory concentration (MIC) assay, the plate was incubated at 37°C for 24 h, and the minimum inhibitory concentration (MIC) was determined by the absorbance at 492 nm of the microplate reader, and the minimum inhibitory concentration (MIC) inhibited 95% of bacteria grow. Determination of minimum bactericidal concentration: the plate was incubated at 37°C for 4 hours, 50 μL of the mixture was taken out of each well, diluted with an appropriate amount of PBS, smeared on the agar plate, and cultured overnight. Colonies were counted and the initial CFU/well was retrospectively calculated the following day. The lowest concentration of peptide that kills 99.9% of bacterial cells is the minimum bactericidal concentration (µM), Each test was replicated at least 3 times.

S. aureus ATCC29213 = assay type: cell-based, Staphylococcus aureus
Experimental: as §1, §2

S. aureus Mu50 biofilm = test: Anti-biofilm assay (crystal violet); assay type: cell-based, Staphylococcus aureus MRSA
Experimental: (§3) The anti-biofilm activity of DiPGLa-H was evaluated using a crystal violet staining method. Briefly, 100 µL of bacterial suspension at 1 × 10^6 CFU/mL was incubated with DiPGLa-H (0–64 µM) for 48 h. The biofilm formed was stained with 1% crystal violet, and the absorbance was measured at 595 nm. The biofilm formation and mature biofilm removal assays were conducted. For biofilm formation, a bacterial suspension was incubated with DiPGLa-H, and biofilm content was quantified. To assess mature biofilm removal, pre-formed biofilms were treated with DiPGLa-H for 24 h, followed by quantification. Detailed Protocol in Supplementary Materials.
(§4) To test the ability of DiPGLa-H to […] on the test bacteria, a single colony was inoculated in MHB medium and incubated overnight at 37 °C and 180 r/min, and 1% of the bacterial suspension was taken and continued to be amplified and incubated for 2 h. […] The biofilm content was analyzed by measuring the absorbance value at 595 nm, and anhydrous ethanol was used as a blank control. […]

[2] = tested on: P. aeruginosa ATCC27853 biofilm; test: Anti-biofilm assay (crystal violet); assay type: cell-based, Pseudomonas aeruginosa
Experimental: as §3, §4

[3] = 1×10^6 CFU/mL, DiPGLa-H 0-64 µM, 48 h, crystal violet, 595 nm

KIAKVALKALKIAKVALKAL-NH2 (C-terminus assumed) [DiPGLa-H]
elevation in MIC values by cationic ions, E. coli K88 (E. coli K88): 2–8 times | inner membrane damage (PI) [1]: 267% | MBC P. aeruginosa ATCC27853 (P. aeruginosa ATCC27853; ATCC27853, 4 h): 2 µM | MIC P. aeruginosa ATCC27853 (P. aeruginosa ATCC27853; ATCC27853, 24 h): 2 µM | MBC S. aureus ATCC29213 (S. aureus ATCC29213; ATCC29213, 4 h): 4 µM | MIC S. aureus ATCC29213 (S. aureus ATCC29213; ATCC29213, 24 h): 4 µM | inhibition of biofilm formation (S. aureus Mu50 biofilm; [3]): inhibition at higher concentrations | concentration effectively eradicating biofilms (S. aureus Mu50 biofilm; pre-formed biofilm treated with DiPGLa-H 0-64 µM for 24 h): above 16 µM | inhibition of biofilm formation [2, 3]: inhibition at higher concentrations | biofilm elimination capacity ([2]; pre-formed biofilm treated with DiPGLa-H for 24 h, similar concentrations (above 16 µM)): less pronounced
